The source made the active and inactive calls. No cut-off for these calls is given here.
Key:
[1] = biological target: T1, Glycogen phosphorylase, muscle form (Oryctolagus cuniculus, UniProt P00489); experiment: (§1) Inhibition of rabbit muscle glycogen phosphorylase A assessed as phosphate release from glucose-1-phosphate
T1 sequence (P00489 whole entry): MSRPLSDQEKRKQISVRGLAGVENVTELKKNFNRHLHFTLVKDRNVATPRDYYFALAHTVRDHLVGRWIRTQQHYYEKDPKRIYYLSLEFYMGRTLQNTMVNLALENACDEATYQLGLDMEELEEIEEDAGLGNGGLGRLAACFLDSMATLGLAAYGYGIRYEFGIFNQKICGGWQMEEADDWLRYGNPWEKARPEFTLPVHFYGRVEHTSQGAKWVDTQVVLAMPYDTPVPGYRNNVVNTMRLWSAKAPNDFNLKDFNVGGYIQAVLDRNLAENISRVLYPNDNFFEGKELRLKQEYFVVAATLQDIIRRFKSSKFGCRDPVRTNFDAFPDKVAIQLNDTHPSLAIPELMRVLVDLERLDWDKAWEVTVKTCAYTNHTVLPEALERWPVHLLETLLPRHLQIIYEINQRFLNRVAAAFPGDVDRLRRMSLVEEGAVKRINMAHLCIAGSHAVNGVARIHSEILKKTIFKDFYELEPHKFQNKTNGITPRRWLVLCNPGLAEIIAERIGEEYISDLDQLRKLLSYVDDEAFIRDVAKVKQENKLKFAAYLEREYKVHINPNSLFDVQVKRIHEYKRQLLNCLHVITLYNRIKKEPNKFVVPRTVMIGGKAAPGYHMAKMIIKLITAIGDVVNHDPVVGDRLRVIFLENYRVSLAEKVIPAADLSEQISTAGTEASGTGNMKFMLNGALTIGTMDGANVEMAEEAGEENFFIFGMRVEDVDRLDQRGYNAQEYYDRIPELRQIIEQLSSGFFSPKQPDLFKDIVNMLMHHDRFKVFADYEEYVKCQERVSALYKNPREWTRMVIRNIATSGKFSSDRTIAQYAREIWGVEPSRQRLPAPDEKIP

[2] = biological target: T2, Glycogen phosphorylase, muscle form (Oryctolagus cuniculus) (UniProt P00489); experiment: as §1
T2 sequence (whole entry): T1 sequence (P00489 whole entry)

[3] = biological target: T2, Glycogen phosphorylase, muscle form (Oryctolagus cuniculus); experiment: Inhibition of rabbit muscle glycogen phosphorylase A assessed as phosphate release from glucose-1-phosphate at 2000 uM

IC50 [1]	Compound	also measured
66 µM	CC1(C)[C@@H](O)CC[C@]2(C)[C@H]3C(=O)C=C4[C@@H]5C[C@@](C)(C(=O)O)CC[C@]5(C)CC[C@@]4(C)[C@]3(C)CC[C@@H]12 [ENOXOLONE]	
57 µM	C[C@H]1[C@H](C)CC[C@]2(C(=O)O)CC[C@]3(C)C(=CC[C@@H]4[C@@]5(C)CCC(=O)C(C)(C)[C@@H]5CC[C@]43C)[C@H]12 [URSONIC ACID]	
822 µM	CC1(C)[C@@H](O[C@H]2O[C@H](C(=O)O)[C@@H](O)[C@H](O)[C@H]2O[C@@H]2O[C@H](C(=O)O)[C@@H](O)[C@H](O)[C@H]2O)CC[C@]2(C)[C@H]3C(=O)C=C4[C@@H]5C[C@@](C)(C(=O)O)CC[C@]5(C)CC[C@@]4(C)[C@]3(C)CC[C@@H]12 [GLYCYRRHIZIN]	
19 µM	C[C@H]1[C@H](C)CC[C@]2(C(=O)O)CC[C@]3(C)C(=CC[C@@H]4[C@@]5(C)CC[C@@H](O)C(C)(C)[C@@H]5CC[C@]43C)[C@H]12	
	C[C@H]1[C@H](C)CC[C@]2(C(=O)O[C@@H]3O[C@H](CO[C@@H]4O[C@H](CO)[C@@H](O[C@@H]5O[C@@H](C)[C@@H](O)[C@H](O)[C@@H]5O)[C@H](O)[C@H]4O)[C@@H](O)[C@H](O)[C@H]3O)CC[C@]3(C)C(=CC[C@@H]4[C@@]5(C)C[C@@H](O)[C@H](O)[C@@](C)(CO)[C@@H]5[C@H](O)C[C@]43C)[C@H]12	Activity [2]: inactive
	C[C@H]1[C@H](C)CC[C@]2(C(=O)O[C@@H]3O[C@H](CO[C@@H]4O[C@H](CO)[C@@H](O[C@@H]5O[C@H](C)[C@H](O)[C@@H](O)[C@H]5O)[C@H](O)[C@H]4O)[C@@H](O)[C@H](O)[C@H]3O)CC[C@]3(C)C(=CC[C@@H]4[C@@]5(C)C[C@@H](O)[C@H](O)[C@@](C)(CO)[C@@H]5CC[C@]43C)[C@H]12	Activity [3]: inactive
	C[C@H]1[C@H](C)CC[C@]2(C(=O)O)CC[C@]3(C)C(=CC[C@@H]4[C@@]5(C)C[C@@H](O)[C@H](O)[C@@](C)(CO)[C@@H]5[C@H](O)C[C@]43C)[C@H]12	Activity [2]: inactive
97 µM	C[C@H]1[C@H](C)CC[C@]2(C(=O)O[C@@H]3O[C@H](CO)[C@@H](O)[C@H](O)[C@H]3O)CC[C@]3(C)C(=CC[C@@H]4[C@@]5(C)CC[C@H](O)C(C)(C)[C@@H]5CC[C@]43C)[C@H]12	
106 µM	C[C@H]1[C@H](C)CC[C@]2(C(=O)O[C@@H]3O[C@H](CO)[C@@H](O)[C@H](O)[C@H]3O)CC[C@]3(C)C(=CC[C@@H]4[C@@]5(C)C[C@@H](O)[C@H](O)C(C)(C)[C@@H]5CC[C@]43C)[C@H]12	
293 µM	CC1(C)CC[C@]2(C(=O)O[C@@H]3O[C@H](CO)[C@@H](O)[C@H](O)[C@H]3O)CC[C@]3(C)C(=CC[C@@H]4[C@@]5(C)CC[C@H](O)C(C)(C)[C@@H]5CC[C@]43C)[C@@H]2C1	
9 µM	C[C@H]1[C@H](C)CC[C@]2(C(=O)O)CC[C@]3(C)C(=CC[C@@H]4[C@@]5(C)CC[C@H](O)C(C)(C)[C@@H]5CC[C@]43C)[C@H]12 [URSOLIC ACID]	

Compound	IC50 [1]	also measured
C=C(C)[C@@H]1CC[C@]2(C(=O)O)CC[C@]3(C)[C@H](CC[C@@H]4[C@@]5(C)CC[C@H](O)[C@@](C)(CO)[C@@H]5CC[C@]43C)[C@@H]12	16 µM	
C=C(C)[C@@H]1CC[C@]2(CO)CC[C@]3(C)[C@H](CC[C@@H]4[C@@]5(C)CC[C@H](O)C(C)(C)[C@@H]5CC[C@]43C)[C@@H]12 [BETULIN]	17 µM	
C=C(C)[C@@H]1CC[C@]2(C(=O)O)CC[C@]3(C)[C@H](CC[C@@H]4[C@@]5(C)CC[C@H](O)C(C)(C)[C@@H]5CC[C@]43C)[C@@H]12 [BETULINIC ACID]	43 µM	
CC1(C)[C@@H](O)CC[C@]2(C)[C@H]3CC=C4[C@@H]5C[C@@](C)(C(=O)O)CC[C@]5(C)CC[C@@]4(C)[C@]3(C)CC[C@@H]12	82 µM	
